{"source": "patent US6150393A", "about": "(priority 1999, dated 2000)", "key": {"[1]": {"tested_on": "human mutated 5HT2A receptor, AP-3", "assay": "Receptor-mediated inositol phosphate (IP3) accumulation, AP-3", "type": "cell-based", "description": "On day one, 1×10^7 293 cells per 150 mm plate were plated out. On day two, two reaction tubes were prepared (the proportions to follow for each tube are per plate): tube A was prepared by mixing 20 μg DNA (e.g., pCMV vector; pCMV vector AP-1 cDNA, etc.) in 1.2 ml serum free DMEM (Irvine Scientific, Irvine, Calif.); tube B was prepared by mixing 120 μl lipofectamine (Gibco BRL) in 1.2 ml serum free DMEM. Tubes A and B were then admixed by inversions (several times), followed by incubation at room temperature for 30-45 min. The admixture is referred to as the \"transfection mixture\". Plated 293 cells were washed with 1×PBS, followed by addition of 10 ml serum free DMEM. 2.4 ml of the transfection mixture was then added to the cells, followed by incubation for 4 hrs at 37° C./5% CO2. On day 3, cells were trypsinized and counted, followed by plating of 1×10^6 cells/well (poly D-lysine treated 12-well plates). Cells were permitted to adhere to the wells, followed by one wash with 1×PBS. Thereafter, 0.5 μCi ^3 H-inositol in 1 ml inositol-free DMEM was added per well. Protocol B.\nOn day 4, the cells were washed with 0.5 ml PBS and then 0.45 ml of assay medium was added containing inositol-free/serum free media, 10 μM pargyline, 10 mM lithium chloride, or 0.4 ml of assay medium and 50 ul of 10× ketanserin (ket) to a final concentration of 10 μM. The cells were then incubated for 30 minutes at 37° C. Then the cells were washed with 0.5 ml PBS and 200 ul of fresh/ice cold stop solution (1M KOH; 18 mM Na-borate; 3.8 mM EDTA) was added/well. The solution was kept on ice for 5-10 minutes or until the cells were lysed and then neutralized by 200 μl of fresh/ice cold neutralization sol. (7.5% HCL). The lysate was then transferred into 1.5 ml microcentrifuge tubes and 1 ml of chloroform/methanol (1:2) was added/tube. The solution was vortexed for 15 seconds and the upper phase was applied to a Biorad AG1-X8 anion exchange resin (100-200 mesh). The resin was washed with water and 0.9 ml of the upper phase was loaded onto the column. The column was washed with 10 mls of 5 mM myo-inositol and 10 ml of 5 mM Na-borate/60 mM Na-formate. The inositol trisphosphates were eluted into scintillation vials containing 10 ml of scintillation cocktail with 2 ml of 0.1 M formic acid/1 M ammonium formate. The columns were regenerated by washing with 10 ml of 0.1 M formic acid/3M ammonium formate and rinsed twice with dd H2 O and stored at room temperature in water.\nCandidate compound identified in the assays of Examples 9a-9c were then evaluated for inositol phosphate accumulation, following the protocol of Example 5 ([…] expressing human mutated 5HT2A receptor, AP-3), modified as follows: tube A was prepared by mixing 16 μg DNA (e.g., pCMV vector; pCMV vector AP-1 cDNA, etc.) in 1.0 ml serum free DMEM (Irvine Scientific, Irvine, Calif.); tube B was prepared by mixing 60 μl lipofectamine (Gibco BRL) in 1.0 ml serum free DMEM. Tubes A and B were then admixed by inversions (several times), followed by incubation at room temperature for 30 min. The admixture is referred to as the \"transfection mixture\". Plated 293 cells were washed with 10 ml Serum Free DMEM, followed by addition of 11 ml Serum Free DMEM. 2.0 ml of the transfection mixture was then added to the cells, followed by incubation for 5 hrs at 37° C./5% CO2. On day 3, cells were trypsinized and counted, followed by plating of 1×10^6 cells/well (12-well plates). Cells were permitted to adhere to the wells for 8 hrs, followed by one wash with 1×PBS. Thereafter, 0.5 μCi ^3 H-inositol in 1 ml inositol-free DMEM was added per well.\nOn day 4, the cells were washed with 1.5 ml PBS and then 0.9 ml of assay medium was added containing inositol-free/serum free media, 10 μM pargyline, 10 mM lithium chloride, for 5 min in 37° C./5% CO2 followed by 100 μl addition of candidate compound diluted in the same material. The cells were then incubated for 120 minutes at 37° C. […]"}, "5HT2 receptors": {"tested_on": "5HT2 receptors", "assay": "DOI locomotor activity test in rats (DOI inhibition study), intraperitoneal test compound", "type": "in vivo, rat (male Sprague-Dawley)", "conditions": "i.p. 30 min before DOI (0.3 mg/kg s.c.)", "description": "(§1) FIG. 3 provides a graphic summary of dose-response results from in vivo analysis of compound 116082 in a 1-(2,5-dimethoxy-4-iodophenyl)-2-aminopropane (\"DOI\") inhibition study (fine movement; ambulation; and animal rearing outcome measures). 116082 was administered 30 min prior to DOI. Animals were placed in locomotor activity cages 10 min after DOI administration and activity was measured for 10 min. Results are presented as total activity counts over the 10 min of exposure to the locomotor activity apparatus.\nas §1, with “FIG. 4” for “FIG. 3”, “compound 116081” for “compound 116082”, “a DOI” for “a 1-(2,5-dimethoxy-4-iodophenyl)-2-aminopropane (\"DOI\")”, “measures). 116081” for “measures). 116082”\nAssessment of 5-HT2 receptor antagonism in vivo was made by using the DOI locomotor activity test in rats as described by Krebs-Thomson (Psychopharmacology, 140:69-74, 1998).\nMotor function was assessed by using automated locomotor activity cages. The rats were placed in a standard rodent cage surrounded by photocell beams, which allow for automated recording of motor activity. […]"}, "[2]": {"assay": "Bar catalepsy test in rats (extrapyramidal side effect analysis)", "type": "in vivo, rat (male Sprague-Dawley)", "conditions": "same dosing parameters and protocol; n=10 per dose; data not shown"}, "[3]": {"assay": "DOI inhibition study in rats, oral administration of test compound (oral availability)", "type": "in vivo, rat", "conditions": "in vivo; rat; 50 mg/kg oral vs 10 mg/kg i.p., inferred from DOI test", "description": "FIG. 6 provides a graphic summary of the effects of oral administration of 116082 and 116081 in a DOI inhibition study in rats. Values represent the mean±SEMs (n=6/group). #P<0.05 vs. vehicle/vehicle, *P<0.05 vs. vehicle/DOI, Student t-test.\nBased upon the in vivo data developed, oral bioavailability of compounds […] was considered. The compounds were administered by oral gavage at a dose of 50 mg/kg, 30 min prior to DOI in rats (see Example 11A, supra). Animals were placed in the locomotor activity cages 10 min after DOI administration and activity was measured for 10 min. Results, presented in FIG. 6, provide total activity counts over the 10 min of exposure to the locomotor activity apparatus."}, "[4]": {"tested_on": "human 5HT2A receptor compared with human 5HT2C receptor", "assay": "Selectivity for 5HT2A over 5HT2C receptor (as measured by IC50 values)", "type": "binding"}}, "data": [{"smiles": "Cn1cc(Br)c(-c2cccc(NC(=O)Nc3ccc(Cl)cc3)c2)n1", "note": "[Compound 116081, N-[3-(4-bromo-1-methylpyrazol-3-yl)phenyl][(4-chlorophenyl)amino]carboxamide]", "values": [{"measurement": "IP3 % of Control", "setting": "[1]; 10 μM test compound, triplicate, control without test compound", "result": 10, "unit": "%"}, {"measurement": "profile in in vitro functional assays", "setting": "[1]; in vitro functional assays", "result": "selective 5HT2A inverse agonist properties"}, {"measurement": "reversal of DOI-induced motor dysfunction", "setting": "5HT2 receptors", "result": "beneficially reverses DOI-induced motor dysfunction"}, {"measurement": "cataleptic response", "setting": "[2]", "result": "did not produce a cataleptic response"}, {"measurement": "bioavailability", "setting": "[3]", "result": "≥ 20", "unit": "%"}, {"measurement": "selectivity preference for the 5HT2A receptor compared with the 5HT2C receptor", "setting": "[4]", "result": 100, "unit": "fold"}]}]}
